Reference: PubChem BioAssay (NCI)
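Results reflect a 48-hour exposure of cells in 96-well plates to compound at five concentrations. The concentration for 50% growth inhibition is given as GI50. TGI: total growth inhibition.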

Tests used:
Test in all cases: NCI tumour cell line growth inhibition, 48 h
[1] = tested on: SNB-19 CNS
[2] = tested on: NCI/ADR-RES ovarian
[3] = tested on: LOX IMVI melanoma
[4] = tested on: RPMI-8226 leukemia
[5] = tested on: PC-3 prostate
[6] = tested on: K-562 leukemia
[7] = tested on: UACC-62 melanoma
[8] = tested on: SK-OV-3 ovarian
[9] = tested on: MCF7 breast
[10] = tested on: OVCAR-5 ovarian
[11] = tested on: A498 renal
[12] = tested on: HOP-62 NSCLC
[13] = tested on: HL-60(TB) leukemia
[14] = tested on: COLO 205 colon
[15] = tested on: SF-268 CNS
[16] = tested on: OVCAR-4 ovarian
[17] = tested on: ACHN renal
[18] = tested on: SW-620 colon
[19] = tested on: IGROV1 ovarian
[20] = tested on: HCT-116 colon
[21] = tested on: SK-MEL-28 melanoma
[22] = tested on: SR leukemia
[23] = tested on: M14 melanoma
[24] = tested on: OVCAR-3 ovarian
[25] = tested on: NCI-H522 lung
[26] = tested on: SN12C renal
[27] = tested on: TK-10 renal
[28] = tested on: MDA-MB-435
[29] = tested on: A549 NSCLC
[30] = tested on: BT-549 breast
[31] = tested on: U251 CNS
[32] = tested on: CAKI-1 renal
[33] = tested on: SF-295 CNS
[34] = tested on: UACC-257 melanoma
[35] = tested on: SK-MEL-2 melanoma
[36] = tested on: OVCAR-8 ovarian
[37] = tested on: T-47D breast
[38] = tested on: DU-145 prostate
[39] = tested on: MDA-MB-231 breast
[40] = tested on: MALME-3M melanoma
[41] = tested on: HS 578T breast
[42] = tested on: SF-539 CNS
[43] = tested on: HT29 colon
[44] = tested on: HOP-92 NSCLC
[45] = tested on: 786-0 renal
[46] = tested on: RXF 393 renal
[47] = tested on: SNB-75 CNS
[48] = tested on: NCI-H226 lung
[49] = tested on: KM12 colon
[50] = tested on: SK-MEL-5 melanoma
[51] = tested on: HCC-2998 colon
[52] = tested on: HCT-15 colon
[53] = tested on: UO-31 renal
[54] = tested on: CCRF-CEM leukemia
[55] = tested on: NCI-H23 lung
[56] = tested on: MOLT-4 leukemia
[57] = tested on: EKVX NSCLC
[58] = tested on: NCI-H460 lung

`NC1(C(=O)O)CSSC1` showed a GI50 [1] of 3.59 µM, a TGI [1] of 84 µM and a GI50 [2] of 3.46 µM. It also gave a TGI [2] of 27.7 µM, a GI50 [3] of 3.24 µM and a TGI [3] of 14.8 µM. For the same compound, the GI50 [4] was 16.8 µM, the TGI [4] was 50.8 µM and the GI50 [5] was 21.5 µM. The TGI [5] was greater than 100 µM, the GI50 [6] was 3.7 µM and the TGI [6] was greater than 100 µM. It also gave a GI50 [7] of 4.53 µM, a TGI [7] of 20.1 µM and a GI50 [8] of 20.3 µM. The TGI [8] was 82.5 µM, the GI50 [9] was 3.65 µM and the TGI [9] was 23.9 µM. The GI50 [10] was 33.2 µM, the TGI [10] was 90.1 µM and the GI50 [11] was 2.53 µM. It also gave a TGI [11] of 7.27 µM, a GI50 [12] of 2.92 µM and a TGI [12] of 9.83 µM. The GI50 [13] was 2.82 µM, the TGI [13] was 11.9 µM and the GI50 [14] was 11.8 µM. For the same compound, the TGI [14] was 27.1 µM, the GI50 [15] was 7.6 µM and the TGI [15] was greater than 100 µM. For the same compound, the GI50 [16] was 5.44 µM, the TGI [16] was 46.5 µM and the GI50 [17] was 3.63 µM. The TGI [17] was 14.2 µM, the GI50 [18] was 10.4 µM and the TGI [18] was greater than 100 µM. The GI50 [19] was 3.91 µM, the TGI [19] was 29.9 µM and the GI50 [20] was 4.53 µM. The TGI [20] was 84.5 µM, the GI50 [21] was 3.14 µM and the TGI [21] was 10.7 µM. It also gave a GI50 [22] of 17.8 µM, a TGI [22] greater than 100 µM and a GI50 [23] of 3.21 µM. For the same compound, the TGI [23] was 11.8 µM, the GI50 [24] was 4.75 µM and the TGI [24] was 59.3 µM. It also gave a GI50 [25] of 3.41 µM, a TGI [25] of 17.7 µM and a GI50 [26] of 3 µM. The TGI [26] was 12.3 µM, the GI50 [27] was 3.42 µM and the TGI [27] was 24.3 µM. It also gave a GI50 [28] of 3.54 µM, a TGI [28] of 13.9 µM and a GI50 [29] of 3.37 µM. It also gave a TGI [29] greater than 100 µM, a GI50 [30] of 4.87 µM and a TGI [30] of 40.2 µM. It also gave a GI50 [31] of 3.58 µM, a TGI [31] of 22.6 µM and a GI50 [32] of 6.22 µM. For the same compound, the TGI [32] was 40.5 µM, the GI50 [33] was 2.35 µM and the TGI [33] was 8.25 µM. For the same compound, the GI50 [34] was 3.85 µM, the TGI [34] was 22.7 µM and the GI50 [35] was 2.66 µM. The TGI [35] was 7.95 µM, the GI50 [36] was 3.6 µM and the TGI [36] was 24.4 µM. The GI50 [37] was 32.1 µM, the TGI [37] was greater than 100 µM and the GI50 [38] was 7.63 µM. For the same compound, the TGI [38] was greater than 100 µM, the GI50 [39] was 17.1 µM and the TGI [39] was 44.3 µM. It also gave a GI50 [40] of 2.77 µM, a TGI [40] of 7.12 µM and a GI50 [41] of 3.91 µM. The TGI [41] was greater than 100 µM, the GI50 [42] was 7.55 µM and the TGI [42] was greater than 100 µM. It also gave a GI50 [43] of 3.84 µM, a TGI [43] of 31.7 µM and a GI50 [44] of 14.3 µM. The TGI [44] was 68.7 µM, the GI50 [45] was 21.6 µM and the TGI [45] was greater than 100 µM. The GI50 [46] was 3.13 µM, the TGI [46] was 11.1 µM and the GI50 [47] was 2.91 µM. For the same compound, the TGI [47] was 21.5 µM, the GI50 [48] was 2.7 µM and the TGI [48] was 8.82 µM. For the same compound, the GI50 [49] was 11.9 µM, the TGI [49] was 80.9 µM and the GI50 [50] was 1.91 µM. It also gave a TGI [50] of 3.68 µM, a GI50 [51] of 16.1 µM and a TGI [51] of 77.5 µM. For the same compound, the GI50 [52] was 3.88 µM, the TGI [52] was 84.7 µM and the GI50 [53] was 3.68 µM. The TGI [53] was 34.4 µM, the GI50 [54] was 13.2 µM and the TGI [54] was greater than 100 µM. It also gave a GI50 [55] of 3.02 µM, a TGI [55] of 14.8 µM and a GI50 [56] of 5.61 µM. For the same compound, the TGI [56] was greater than 100 µM, the GI50 [57] was 4.49 µM and the TGI [57] was 35 µM. For the same compound, the GI50 [58] was 3 µM and the TGI [58] was greater than 100 µM.
For `COc1ccc(CNC(=O)c2ccc(-c3cc(-c4nnc(C)o4)ccc3C)cc2)cc1`, the GI50 [1] was greater than 22.8 µM, the TGI [1] was greater than 25 µM and the GI50 [2] was 16.1 µM. It also gave a TGI [2] greater than 25 µM, a GI50 [3] greater than 25 µM and a TGI [3] greater than 25 µM. It also gave a GI50 [4] of 12.6 µM, a TGI [4] greater than 25 µM and a GI50 [5] of 19.2 µM. The TGI [5] was greater than 25 µM, the GI50 [6] was 11.2 µM and the TGI [6] was greater than 25 µM. It also gave a GI50 [7] of 11.1 µM, a TGI [7] greater than 25 µM and a GI50 [8] greater than 25 µM. For the same compound, the TGI [8] was greater than 25 µM, the GI50 [9] was 9.86 µM and the TGI [9] was greater than 25 µM. For the same compound, the GI50 [10] was greater than 25 µM, the TGI [10] was greater than 25 µM and the GI50 [11] was 8.22 µM. For the same compound, the TGI [11] was greater than 25 µM, the GI50 [12] was 17.5 µM and the TGI [12] was greater than 25 µM. It also gave a GI50 [13] greater than 18.5 µM, a TGI [13] greater than 25 µM and a GI50 [14] greater than 22.9 µM. For the same compound, the TGI [14] was greater than 25 µM, the GI50 [15] was 21 µM and the TGI [15] was greater than 25 µM. For the same compound, the GI50 [16] was 6.8 µM, the TGI [16] was greater than 25 µM and the GI50 [17] was 16.3 µM. The TGI [17] was greater than 25 µM, the GI50 [18] was greater than 25 µM and the TGI [18] was greater than 25 µM. For the same compound, the GI50 [19] was greater than 22.6 µM, the TGI [19] was greater than 25 µM and the GI50 [20] was 14.6 µM. It also gave a TGI [20] greater than 25 µM, a GI50 [21] greater than 25 µM and a TGI [21] greater than 25 µM. For the same compound, the GI50 [22] was greater than 25 µM, the TGI [22] was greater than 25 µM and the GI50 [23] was greater than 25 µM. It also gave a TGI [23] greater than 25 µM, a GI50 [24] of 17.1 µM and a TGI [24] greater than 25 µM. The GI50 [25] was greater than 20.2 µM, the TGI [25] was greater than 25 µM and the GI50 [26] was greater than 25 µM. For the same compound, the TGI [26] was greater than 25 µM, the GI50 [27] was greater than 25 µM and the TGI [27] was greater than 25 µM. For the same compound, the GI50 [28] was 10.6 µM, the TGI [28] was greater than 25 µM and the GI50 [29] was 22.8 µM. For the same compound, the TGI [29] was greater than 25 µM, the GI50 [30] was 13.3 µM and the TGI [30] was greater than 25 µM. It also gave a GI50 [31] greater than 25 µM, a TGI [31] greater than 25 µM and a GI50 [32] of 19.5 µM. The TGI [32] was greater than 25 µM, the GI50 [33] was 7.6 µM and the TGI [33] was greater than 25 µM. The GI50 [34] was 12.8 µM, the TGI [34] was greater than 25 µM and the GI50 [35] was greater than 25 µM. It also gave a TGI [35] greater than 25 µM, a GI50 [36] greater than 25 µM and a TGI [36] greater than 25 µM. It also gave a GI50 [37] of 7.01 µM, a TGI [37] greater than 25 µM and a GI50 [38] greater than 25 µM. For the same compound, the TGI [38] was greater than 25 µM, the GI50 [39] was greater than 25 µM and the TGI [39] was greater than 25 µM. The GI50 [40] was 5.37 µM, the TGI [40] was greater than 25 µM and the GI50 [41] was greater than 25 µM. It also gave a TGI [41] greater than 25 µM, a GI50 [42] greater than 25 µM and a TGI [42] greater than 25 µM. The GI50 [43] was greater than 25 µM, the TGI [43] was greater than 25 µM and the GI50 [44] was 2.11 µM. It also gave a TGI [44] greater than 25 µM, a GI50 [45] greater than 25 µM and a TGI [45] greater than 25 µM. For the same compound, the GI50 [46] was greater than 25 µM, the TGI [46] was greater than 25 µM and the GI50 [47] was 14.2 µM. The TGI [47] was greater than 25 µM, the GI50 [48] was greater than 20.4 µM and the TGI [48] was greater than 25 µM. It also gave a GI50 [49] greater than 25 µM, a TGI [49] greater than 25 µM and a GI50 [50] of 6.17 µM. It also gave a TGI [50] greater than 19.9 µM, a GI50 [51] greater than 25 µM and a TGI [51] greater than 25 µM. For the same compound, the GI50 [52] was 19.9 µM, the TGI [52] was greater than 25 µM and the GI50 [53] was 6.03 µM. The TGI [53] was greater than 25 µM, the GI50 [54] was greater than 25 µM and the TGI [54] was greater than 25 µM. The GI50 [55] was 17.4 µM, the TGI [55] was greater than 25 µM and the GI50 [56] was 15.6 µM. It also gave a TGI [56] greater than 25 µM, a GI50 [57] of 7.68 µM and a TGI [57] greater than 25 µM. The GI50 [58] was greater than 25 µM and the TGI [58] was greater than 25 µM.
